“Also recorded” adds a separate entry of the source. Where two headings read alike, the source gives them in different places.
How the values were obtained:
PSMA = target: T1, PSMA (Homo sapiens, UniProt Q04609); assay: Equilibrium dissociation constant Kd / Bmax, saturation binding on PSMA-positive LNCaP cells
T1 construct: host or cells: LNCaP cells
Procedure: The equilibrium dissociation constant describing the interaction of the radiolabeled ligands with the PSMA binding sites was determined in PSMA-positive LNCaP cell lines (Cell Line Service, Eppelheim, Germany). LNCaP cells were seeded at a density of 10^6 cells/well on a 6-well plate (Corning, ME, USA) and incubated under 5% CO2 at 37 °C for 48 h with medium (minimum essential medium Eagle supplemented with 2 mM L-glutamine, 0.1 mM non-essential amino acids (NEAA), 1.0 mM sodium pyruvate, 10% fetal bovine serum, 100 U/ml penicillin, and 100 µg/ml streptomycin) (Lonza, Verviers, Belgium) in a humidified incubator (Thermo Heracell 150 CO2-Incubator, MA, USA). To determine the nonspecific binding, the medium was removed from selected wells, and 1 ml of a solution of 0.1 mM of 2-(phosphonomethyl)-pentanedioic acid (2-PMPA) in fresh medium was added. […] The plates were then incubated under 5% CO2, at 37 °C for 1 h. After that, the medium was removed and the cells incubated under the same incubation conditions for 3 h with different concentrations (0.25 nM, 2.5 nM, 5 nM, 10 nM, 25 nM, 50 nM, and 75 nM) of the radiotracer under investigation in 1 ml fresh medium.
After 3 h, the cells were washed three times with 1 ml PBS, and the cells were finally lysed by adding 1 ml of 1 M NaOH and incubating them for 10 min at room temperature. All samples were measured with a gamma counter (Nuklear Medizintechnik Dresden Isomed 100, Dresden, Germany) and were decay-corrected. The equilibrium dissociation constant (Kd) and the maximum density of receptors (Bmax) were calculated by non-linear regression using GraphPad Prism 8.0.2 (GraphPad Software, San Diego, USA).

LNCaP cells [1] = assay: Cellular uptake (specific cell binding) in LNCaP cells; format: cell-based; settings: n=3
Procedure: (§1) The cell binding determined in these experiments is the sum of specific and nonspecific cell binding. To determine the values for nonspecific cell binding and internalization, all experiments were additionally performed in the presence of 2-PMPA.
(§2) The plates were incubated for 1 h; after which, 0.75 pmol of the radiotracer to be examined was added to 1 ml of fresh medium. The cells were incubated for 30 min, 1, 2, 3, and 5 h. At each time point, the supernatant was removed and the cells washed with 1 ml of PBS. To dissociate the receptor-bound radioligand, the cells were washed twice with 1 ml of a 0.1 M glycine buffer solution at pH 2.8 for 5 min. The 0.1 M glycine–HCl buffer dissociated all the surface-bound complexes. The cells were then washed with 1 ml of PBS, and the internalized fraction was determined by solubilizing the cells with 1 ml of 1 M NaOH and incubating them for 10 min at room temperature. The radioactivity collected from the culture medium, 0.1 M glycine (surface-bound), and 1 M NaOH (internalized fraction) was measured in a gamma counter and decay-corrected. Cell binding was calculated from the surface-bound (0.1 M glycine) and the internalized fraction (1 M NaOH). The internalized fraction was expressed as a percentage of cell binding (internalization to cell-bound radioactivity ratio). All cell uptake experiments were run in triplicate.

LNCaP cells [2] = assay: Internalization in LNCaP cells; format: cell-based; settings: n=3
Procedure: as §1, §2

LNCaP tumor xenografts = settings: for Biodistribution Blood / Biodistribution Bone / Biodistribution Heart / Biodistribution Intestine / Biodistribution Kidneys / Biodistribution LNCAP-tumor / Biodistribution Liver / Biodistribution Lung / Biodistribution Muscle / Biodistribution Prostate / Biodistribution Spleen / Biodistribution Thyroid: i.v. 30 pmol, n=5
LNCaP tumor xenograft = assay: Small-animal PET in mice bearing an LNCaP tumor xenograft, with and without blocking by 2-PMPA; settings: 2-PMPA 23 mg/kg, n=3 per group

T1 sequence (Q04609 whole entry): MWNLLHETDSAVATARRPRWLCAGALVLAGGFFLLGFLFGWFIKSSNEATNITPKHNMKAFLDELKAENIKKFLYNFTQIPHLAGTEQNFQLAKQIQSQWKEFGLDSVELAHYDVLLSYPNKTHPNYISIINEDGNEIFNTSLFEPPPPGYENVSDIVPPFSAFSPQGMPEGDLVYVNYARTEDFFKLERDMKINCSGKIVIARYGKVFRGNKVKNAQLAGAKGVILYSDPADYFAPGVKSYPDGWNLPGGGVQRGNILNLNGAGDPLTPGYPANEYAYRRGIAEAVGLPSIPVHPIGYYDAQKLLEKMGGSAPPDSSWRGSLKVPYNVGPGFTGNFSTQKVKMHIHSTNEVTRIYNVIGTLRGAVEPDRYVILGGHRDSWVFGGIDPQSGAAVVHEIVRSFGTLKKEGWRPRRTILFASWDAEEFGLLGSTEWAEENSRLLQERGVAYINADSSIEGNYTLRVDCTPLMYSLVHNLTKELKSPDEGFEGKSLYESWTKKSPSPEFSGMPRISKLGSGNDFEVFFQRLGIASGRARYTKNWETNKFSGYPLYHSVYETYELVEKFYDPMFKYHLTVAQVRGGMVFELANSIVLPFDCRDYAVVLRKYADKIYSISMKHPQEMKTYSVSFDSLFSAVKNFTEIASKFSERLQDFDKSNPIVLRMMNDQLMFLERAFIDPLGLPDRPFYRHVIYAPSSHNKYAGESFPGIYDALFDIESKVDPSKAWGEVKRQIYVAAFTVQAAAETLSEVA

`O=C([O-])CN(CCN(CC(=O)[O-])Cc1cc(CCC(=O)NCCCCCC(=O)NCCCC[C@H](NC(=O)N[C@@H](CCC(=O)O)C(=O)O)C(=O)O)ccc1[O-])Cc1cc(CCC(=O)O)ccc1[O-].[68Ga+3].[OH3+]` [[^68Ga]Ga-PSMA-11] was tested, and the Kd (PSMA; 3 h incubation, 0.25-75 nM, nonspecific binding with 2-PMPA) was 5.15 ± 0.6 nM, the “Bmax (maximum achievable concentration on 10^6 tumor cells)” value (PSMA; Scatchard plots) was 1746 ± 53 fmol/10^6 cells and the “Specific binding in LNCaP cells as percentage of total activity” value (LNCaP cells [1]; 0.5 h) was 27.7±0.7%. The “Specific binding in LNCaP cells as percentage of total activity” value (LNCaP cells [1]; 1 h) was 35.3±3.1 %, the “Specific binding in LNCaP cells as percentage of total activity” value (LNCaP cells [1]; 2 h) was 42.0±1.2 % and the “Specific binding in LNCaP cells as percentage of total activity” value (LNCaP cells [1]; 3 h) was 46.3±2.1%. The “Specific binding in LNCaP cells as percentage of total activity” value (LNCaP cells [1]; 5 h) was 48.3±1.2%, the “Specific internalized activity as percentage of specific cell-bound activity” value (LNCaP cells [2]; 0.5 h) was 28.9±0.7% and the “Specific internalized activity as percentage of specific cell-bound activity” value (LNCaP cells [2]; 1 h) was 39.7±2.0%. For the same compound, the “Specific internalized activity as percentage of specific cell-bound activity” value (LNCaP cells [2]; 2 h) was 48.3±2.5%, the “Specific internalized activity as percentage of specific cell-bound activity” value (LNCaP cells [2]; 3 h) was 50.5±3.4% and the “Specific internalized activity as percentage of specific cell-bound activity” value (LNCaP cells [2]; 5 h) was 56.8±2.2 %. It also gave a Tumor/blood ratio (LNCaP tumor xenografts; 2 h p.i., LNCaP xenograft mice) of 15 ± 3, a Tumor/kidneys ratio (LNCaP tumor xenografts; 2 h p.i., LNCaP xenograft mice) of 0.09 ± 0.02 and a Tumor/liver ratio (LNCaP tumor xenografts; 2 h p.i., LNCaP xenograft mice) of 6.2 ± 1.0. For the same compound, the Tumor/muscle ratio (LNCaP tumor xenografts; 2 h p.i., LNCaP xenograft mice) was 37 ± 8, the “Biodistribution Blood” value (LNCaP tumor xenografts; 2 h p.i.) was 1.34 ± 0.20 %ID/g and the “Biodistribution Bone” value (LNCaP tumor xenografts; 2 h p.i.) was 1.19 ± 0.31 %ID/g. For the same compound, the “Biodistribution Heart” value (LNCaP tumor xenografts; 2 h p.i.) was 1.10 ± 0.36 %ID/g, the “Biodistribution Intestine” value (LNCaP tumor xenografts; 2 h p.i.) was 1.50 ± 0.59 %ID/g and the “Biodistribution Kidneys” value (LNCaP tumor xenografts; 2 h p.i.) was 231 ± 41 %ID/g. The “Biodistribution LNCAP-tumor” value (LNCaP tumor xenografts; 2 h p.i.) was 19.4 ± 2.4 %ID/g, the “Biodistribution Liver” value (LNCaP tumor xenografts; 2 h p.i.) was 3.17 ± 0.18 %ID/g and the “Biodistribution Lung” value (LNCaP tumor xenografts; 2 h p.i.) was 3.27 ± 1.03 %ID/g. For the same compound, the “Biodistribution Muscle” value (LNCaP tumor xenografts; 2 h p.i.) was 0.54 ± 0.15 %ID/g, the “Biodistribution Prostate” value (LNCaP tumor xenografts; 2 h p.i.) was 4.09 ± 1.15 %ID/g and the “Biodistribution Spleen” value (LNCaP tumor xenografts; 2 h p.i.) was 40.9 ± 9.3 %ID/g. For the same compound, the “Biodistribution Thyroid” value (LNCaP tumor xenografts; 2 h p.i.) was 2.13 ± 0.27 %ID/g, the Tumor/kidneys ratio (LNCaP tumor xenografts; 4 h p.i., LNCaP xenograft mice) was 0.10 ± 0.05 and the Tumor/liver ratio (LNCaP tumor xenografts; 4 h p.i., LNCaP xenograft mice) was 34.6 ± 6.6. The “Biodistribution Blood” value (LNCaP tumor xenografts; 4 h p.i.) was 0.21 ± 0.03 %ID/g, the “Biodistribution Bone” value (LNCaP tumor xenografts; 4 h p.i.) was 0.50 ± 0.19 %ID/g and the “Biodistribution Heart” value (LNCaP tumor xenografts; 4 h p.i.) was 1.35 ± 0.70 %ID/g. The “Biodistribution Intestine” value (LNCaP tumor xenografts; 4 h p.i.) was 0.65 ± 0.30 %ID/g, the “Biodistribution Kidneys” value (LNCaP tumor xenografts; 4 h p.i.) was 226 ± 25 %ID/g and the “Biodistribution LNCAP-tumor” value (LNCaP tumor xenografts; 4 h p.i.) was 23.2 ± 10.6 %ID/g. For the same compound, the “Biodistribution Liver” value (LNCaP tumor xenografts; 4 h p.i.) was 0.65 ± 0.21 %ID/g, the “Biodistribution Lung” value (LNCaP tumor xenografts; 4 h p.i.) was 1.23 ± 0.13 %ID/g and the “Biodistribution Muscle” value (LNCaP tumor xenografts; 4 h p.i.) was 0.42 ± 0.11 %ID/g. For the same compound, the “Biodistribution Prostate” value (LNCaP tumor xenografts; 4 h p.i.) was 1.67 ± 0.37 %ID/g, the “Biodistribution Spleen” value (LNCaP tumor xenografts; 4 h p.i.) was 62.5 ± 21.5 %ID/g and the “Biodistribution Thyroid” value (LNCaP tumor xenografts; 4 h p.i.) was 4.44 ± 2.9 %ID/g.

`O=C(O)CCC(CP(=O)(O)O)C(=O)O` (stereo not drawn) [2-PMPA, 2-(phosphonomethyl)-pentanedioic acid] was tested, and the “Effect of blocking on accumulation of [^89Zr]Zr-PSMA-DFO radioactivity in the liver” value (LNCaP tumor xenograft; 1 h, 21 h and 48 h) was “significantly increased; also recorded: radioactivity accumulated in the liver”, the “Effect of blocking on accumulation of [^89Zr]Zr-PSMA-DFO radioactivity in the kidneys” value (LNCaP tumor xenograft; significant after 1 h) was “significantly reduced” and the “Effect of blocking on tumor accumulation of [^89Zr]Zr-PSMA-DFO” value (LNCaP tumor xenograft; significant after 1 h) was “strongly reduced; also recorded: markedly reduced”.
